One block for each compound: values may come before it.
How the values were obtained:
Assay type in all cases: functional, cell-based
LXF-289 cell line = test: cells; conditions: Homo sapiens
Description: SANGER: Inhibition of human LXF-289 cell growth in a cell viability assay.

KU812 cell line = test: cells; conditions: Homo sapiens;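 further: growth inhibition of KU812 cells, read out with a cell viability assay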
Description: SANGER: Inhibition of human KU812 cell growth in a cell viability assay.

A253 cell line = test: cells; conditions: Homo sapiens;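 further: growth inhibition of A253 cells, read out with a cell viability assay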
Description: SANGER: Inhibition of human A253 cell growth in a cell viability assay.

BC1 cell line = test: SANGER: Inhibition of human BC-1 cell growth in a cell viability assay.
SK-N-FI = test: cells; conditions: Homo sapiens;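 further: cell viability assay measuring growth inhibition of human SK-N-FI cells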
Description: SANGER: Inhibition of human SK-N-FI cell growth in a cell viability assay.

CAL-62 = test: cells; conditions: Homo sapiens;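 further: growth inhibition of CAL-62 cells, read out with a cell viability assay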
Description: SANGER: Inhibition of human CAL-62 cell growth in a cell viability assay.

SK-MEL-2 = test: cells; conditions: Homo sapiens;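 further: growth inhibition of human SK-MEL-2 cells measured with a cell viability assay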
Description: SANGER: Inhibition of human SK-MEL-2 cell growth in a cell viability assay.

HT55 = test: cells; conditions: Homo sapiens;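 further: cell viability readout measuring growth inhibition of human HT55 cells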
Description: SANGER: Inhibition of human HT55 cell growth in a cell viability assay.

SK-LU-1 = test: cells; conditions: Homo sapiens;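 further: cell viability assay measuring growth inhibition of human SK-LU-1 cells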
Description: SANGER: Inhibition of human SK-LU-1 cell growth in a cell viability assay.

HEL = test: cells; conditions: Homo sapiens;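 further: growth inhibition of HEL cells, read out with a cell viability assay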
Description: SANGER: Inhibition of human HEL cell growth in a cell viability assay.

MPP-89 = test: cells; conditions: Homo sapiens;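 further: growth inhibition of human MPP-89 cells, read out with a cell viability assay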
Description: SANGER: Inhibition of human MPP-89 cell growth in a cell viability assay.

GI-1 = test: cells; conditions: Homo sapiens;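 further: growth inhibition of human GI-1 cells, measured with a cell viability readout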
Description: SANGER: Inhibition of human GI-1 cell growth in a cell viability assay.

EW-18 = test: cells; conditions: Homo sapiens;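 further: growth inhibition of EW-18 cells, read out by a cell viability assay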
Description: SANGER: Inhibition of human EW-18 cell growth in a cell viability assay.

CaR-1 = test: cells; conditions: Homo sapiens;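 further: growth inhibition of human CaR-1 cancer cells, read out with a cell viability assay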
Description: SANGER: Inhibition of human CaR-1 cell growth in a cell viability assay.

NCI-H520 = test: cells; conditions: Homo sapiens;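 further: growth inhibition of NCI-H520 cells, measured by a cell viability assay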
Description: SANGER: Inhibition of human NCI-H520 cell growth in a cell viability assay.

UACC-893 = test: cells; conditions: Homo sapiens
Description: SANGER: Inhibition of human UACC-893 cell growth in a cell viability assay.

IST-SL1 = test: cells; conditions: Homo sapiens;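 further: growth inhibition of human IST-SL1 cells, read out with a cell viability assay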
Description: SANGER: Inhibition of human IST-SL1 cell growth in a cell viability assay.

P30-OHK = test: cells; conditions: Homo sapiens;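 further: growth inhibition of the P30-OHK cell line, read out with a cell viability assay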
Description: SANGER: Inhibition of human P30-OHK cell growth in a cell viability assay.

ATN-1 = test: cells; conditions: Homo sapiens;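 further: growth inhibition of human ATN-1 cells, read out with a cell viability assay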
Description: SANGER: Inhibition of human ATN-1 cell growth in a cell viability assay.

8505C = test: cells; conditions: Homo sapiens
Description: SANGER: Inhibition of human 8505C cell growth in a cell viability assay.

LCLC-97TM1 = test: cells; conditions: Homo sapiens;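 further: cell viability assay measuring growth inhibition of human LCLC-97TM1 cells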
Description: SANGER: Inhibition of human LCLC-97TM1 cell growth in a cell viability assay.

IA-LM = test: cells; conditions: Homo sapiens;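 further: cell viability assay measuring growth inhibition of human IA-LM cells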
Description: SANGER: Inhibition of human IA-LM cell growth in a cell viability assay.

MOLT-13 = test: cells; conditions: Homo sapiens;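 further: IC50 for suppression of MOLT-13 cell growth, read out with a cell viability assay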
Description: SANGER: Inhibition of human MOLT-13 cell growth in a cell viability assay.

HSC-2 = test: cells; conditions: Homo sapiens;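 further: growth inhibition of human HSC-2 cells, read out by a cell viability assay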
Description: SANGER: Inhibition of human HSC-2 cell growth in a cell viability assay.

MN-60 = test: cells; conditions: Homo sapiens;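 further: growth inhibition of the MN-60 cell line, determined with a cell viability assay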
Description: SANGER: Inhibition of human MN-60 cell growth in a cell viability assay.

HTC-C3 = test: cells; conditions: Homo sapiens;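 further: inhibition of cell growth, read out with a cell viability assay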
Description: SANGER: Inhibition of human HTC-C3 cell growth in a cell viability assay.

5637 = test: cells; conditions: Homo sapiens
Description: SANGER: Inhibition of human 5637 cell growth in a cell viability assay.

SBC-1 = test: cells; conditions: Homo sapiens;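 further: cell viability assay measuring growth inhibition of the SBC-1 cell line, IC50 being the concentration that halves growth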
Description: SANGER: Inhibition of human SBC-1 cell growth in a cell viability assay.

BB49-HNC = test: cells; conditions: Homo sapiens;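 further: cell viability assay read-out, reported as inhibition of BB49-HNC cell growth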
Description: SANGER: Inhibition of human BB49-HNC cell growth in a cell viability assay.

RS4-11 = test: cells; conditions: Homo sapiens;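 further: growth inhibition of RS4-11 cells, read out by a cell viability assay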
Description: SANGER: Inhibition of human RS4-11 cell growth in a cell viability assay.

LU-139 = test: cells; conditions: Homo sapiens
Description: SANGER: Inhibition of human LU-139 cell growth in a cell viability assay.

JVM-3 = test: cells; conditions: Homo sapiens;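 further: growth inhibition of human JVM-3 cells, read out with a cell viability assay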
Description: SANGER: Inhibition of human JVM-3 cell growth in a cell viability assay.

OVCAR-8 = test: cells; conditions: Homo sapiens;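 further: growth inhibition of human OVCAR-8 cells, read out by a cell viability assay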
Description: SANGER: Inhibition of human OVCAR-8 cell growth in a cell viability assay.

H-EMC-SS = test: cells; conditions: Homo sapiens
Description: SANGER: Inhibition of human H-EMC-SS cell growth in a cell viability assay.

A673 = test: cells; conditions: Homo sapiens;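 further: growth inhibition of human A673 cells, read out through a cell viability assay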
Description: SANGER: Inhibition of human A673 cell growth in a cell viability assay.

NY = test: cells; conditions: Homo sapiens
Description: SANGER: Inhibition of human NY cell growth in a cell viability assay.

TE-8 = test: cells; conditions: Homo sapiens;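 further: growth inhibition of TE-8 cells, measured with a cell viability readout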
Description: SANGER: Inhibition of human TE-8 cell growth in a cell viability assay.

NCI-H1693 = test: cells; conditions: Homo sapiens;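 further: growth inhibition of the human cell line, read out with a cell viability assay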
Description: SANGER: Inhibition of human NCI-H1693 cell growth in a cell viability assay.

NCI-H292 = test: cells; conditions: Homo sapiens;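 further: growth inhibition of NCI-H292 cells, read out with a cell viability assay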
Description: SANGER: Inhibition of human NCI-H292 cell growth in a cell viability assay.

CAL-39 = test: cells; conditions: Homo sapiens;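 further: cell viability assay measuring growth inhibition of CAL-39 cells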
Description: SANGER: Inhibition of human CAL-39 cell growth in a cell viability assay.

NCI-H1666 = test: cells; conditions: Homo sapiens;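 further: growth inhibition of the cell line, read out with a cell viability assay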
Description: SANGER: Inhibition of human NCI-H1666 cell growth in a cell viability assay.

DMS-273 = test: cells; conditions: Homo sapiens
Description: SANGER: Inhibition of human DMS-273 cell growth in a cell viability assay.

A3-KAW = test: cells; conditions: Homo sapiens;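 further: growth inhibition of human A3-KAW cells, read out with a cell viability assay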
Description: SANGER: Inhibition of human A3-KAW cell growth in a cell viability assay.

SW948 = test: cells; conditions: Homo sapiens;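 further: growth inhibition of SW948 cells, read out with a cell viability assay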
Description: SANGER: Inhibition of human SW948 cell growth in a cell viability assay.

C8166 = test: cells; conditions: Homo sapiens;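 further: growth inhibition of human C8166 cells measured by a cell viability assay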
Description: SANGER: Inhibition of human C8166 cell growth in a cell viability assay.

JAR = test: cells; conditions: Homo sapiens;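 further: growth inhibition of human JAR cells determined with a cell viability assay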
Description: SANGER: Inhibition of human JAR cell growth in a cell viability assay.

HN = test: cells; conditions: Homo sapiens
Description: SANGER: Inhibition of human HN cell growth in a cell viability assay.

GCT = test: cells; conditions: Homo sapiens;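 further: GCT cell line proliferation inhibition, read out with a cell viability assay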
Description: SANGER: Inhibition of human GCT cell growth in a cell viability assay.

OS-RC-2 = test: cells; conditions: Homo sapiens;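 further: growth inhibition of human OS-RC-2 cells, measured by a cell viability assay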
Description: SANGER: Inhibition of human OS-RC-2 cell growth in a cell viability assay.

VMRC-RCZ = test: cells; conditions: Homo sapiens
Description: SANGER: Inhibition of human VMRC-RCZ cell growth in a cell viability assay.

SK-N-AS = test: cells; conditions: Homo sapiens;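 further: growth inhibition of human SK-N-AS cells, measured with a cell viability assay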
Description: SANGER: Inhibition of human SK-N-AS cell growth in a cell viability assay.

MDA-MB-453 = test: cells; conditions: Homo sapiens
Description: SANGER: Inhibition of human MDA-MB-453 cell growth in a cell viability assay.

OE33 = test: cells; conditions: Homo sapiens;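 further: growth inhibition of human OE33 cells, measured by a cell viability assay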
Description: SANGER: Inhibition of human OE33 cell growth in a cell viability assay.

SNU-449 = test: cells; conditions: Homo sapiens
Description: SANGER: Inhibition of human SNU-449 cell growth in a cell viability assay.

DSH1 = test: cells; conditions: Homo sapiens;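 further: growth inhibition of human DSH1 cells, measured with a cell viability readout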
Description: SANGER: Inhibition of human DSH1 cell growth in a cell viability assay.

ES7 = test: cells; conditions: Homo sapiens;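 further: growth inhibition of cultured human ES7 cells, read out as cell viability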
Description: SANGER: Inhibition of human ES7 cell growth in a cell viability assay.

PSN1 = test: cells; conditions: Homo sapiens;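 further: suppression of growth of human PSN1 cells, read out by a cell viability assay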
Description: SANGER: Inhibition of human PSN1 cell growth in a cell viability assay.

LCLC-103H cell line = test: cells; conditions: Homo sapiens
Description: SANGER: Inhibition of human LCLC-103H cell growth in a cell viability assay.

YAPC = test: cells; conditions: Homo sapiens;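 further: growth inhibition of YAPC cells, measured with a cell viability assay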
Description: SANGER: Inhibition of human YAPC cell growth in a cell viability assay.

TE-6 = test: cells; conditions: Homo sapiens;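 further: growth inhibition of TE-6 cells, read out with a cell viability assay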
Description: SANGER: Inhibition of human TE-6 cell growth in a cell viability assay.

COR-L88 = test: cells; conditions: Homo sapiens;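 further: growth inhibition of COR-L88 cells, read out with a cell viability assay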
Description: SANGER: Inhibition of human COR-L88 cell growth in a cell viability assay.

SW780 = test: cells; conditions: Homo sapiens
Description: SANGER: Inhibition of human SW780 cell growth in a cell viability assay.

TE-1 = test: cells; conditions: Homo sapiens
Description: SANGER: Inhibition of human TE-1 cell growth in a cell viability assay.

OCUB-M = test: cells; conditions: Homo sapiens
Description: SANGER: Inhibition of human OCUB-M cell growth in a cell viability assay.

HCC1569 = test: cells; conditions: Homo sapiens
Description: SANGER: Inhibition of human HCC1569 cell growth in a cell viability assay.

COLO-824 = test: cells; conditions: Homo sapiens
Description: SANGER: Inhibition of human COLO-824 cell growth in a cell viability assay.

CAL-51 = test: cells; conditions: Homo sapiens
Description: SANGER: Inhibition of human CAL-51 cell growth in a cell viability assay.

Huh-7 = test: cells; conditions: Homo sapiens
Description: SANGER: Inhibition of human HuH-7 cell growth in a cell viability assay.

8305C = test: cells; conditions: Homo sapiens
Description: SANGER: Inhibition of human 8305C cell growth in a cell viability assay.

NCI-H23 = test: cells; conditions: Homo sapiens
Description: SANGER: Inhibition of human NCI-H23 cell growth in a cell viability assay.

D-566MG = test: cells; conditions: Homo sapiens
SNU1 = test: cells; conditions: Homo sapiens
Description: SANGER: Inhibition of human NCI-SNU-1 cell growth in a cell viability assay.

OC-314 = test: cells; conditions: Homo sapiens
Description: SANGER: Inhibition of human OC-314 cell growth in a cell viability assay.

COLO-320-HSR = test: cells; conditions: Homo sapiens
Description: SANGER: Inhibition of human COLO-320-HSR cell growth in a cell viability assay.

NOMO-1 = test: cells; conditions: Homo sapiens
Description: SANGER: Inhibition of human NOMO-1 cell growth in a cell viability assay.

KARPAS-45 = test: cells; conditions: Homo sapiens
Description: SANGER: Inhibition of human KARPAS-45 cell growth in a cell viability assay.

NCI-H446 = test: cells; conditions: Homo sapiens
Description: SANGER: Inhibition of human NCI-H446 cell growth in a cell viability assay.

NCI-H1581 = test: cells; conditions: Homo sapiens
Description: SANGER: Inhibition of human NCI-H1581 cell growth in a cell viability assay.

DMS-114 = test: cells; conditions: Homo sapiens
K5 = test: cells; conditions: Homo sapiens
Description: SANGER: Inhibition of human K5 cell growth in a cell viability assay.

CHP-212 = test: cells; conditions: Homo sapiens
Description: SANGER: Inhibition of human CHP-212 cell growth in a cell viability assay.

MHH-NB-11 = test: cells; conditions: Homo sapiens
Description: SANGER: Inhibition of human MHH-NB-11 cell growth in a cell viability assay.

D-392MG = test: cells; conditions: Homo sapiens
EM-2 = test: cells; conditions: Homo sapiens
Description: SANGER: Inhibition of human EM-2 cell growth in a cell viability assay.

AGS = test: cells; conditions: Homo sapiens
Description: SANGER: Inhibition of human AGS cell growth in a cell viability assay.

A-427 = test: cells; conditions: Homo sapiens
Description: SANGER: Inhibition of human A427 cell growth in a cell viability assay.

L-363 = test: cells; conditions: Homo sapiens
Description: SANGER: Inhibition of human L-363 cell growth in a cell viability assay.

A2780 = test: cells; conditions: Homo sapiens
Description: SANGER: Inhibition of human A2780 cell growth in a cell viability assay.

MEG-01 = test: cells; conditions: Homo sapiens
Description: SANGER: Inhibition of human MEG-01 cell growth in a cell viability assay.

LB1047-RCC = test: cells; conditions: Homo sapiens
Description: SANGER: Inhibition of human LB1047-RCC cell growth in a cell viability assay.

IGR-1 = test: cells; conditions: Homo sapiens
Description: SANGER: Inhibition of human IGR-1 cell growth in a cell viability assay.

786-0 = test: cells; conditions: Homo sapiens
Description: SANGER: Inhibition of human 786-0 cell growth in a cell viability assay.

NCI-H810 = test: cells; conditions: Homo sapiens
Description: SANGER: Inhibition of human NCI-H810 cell growth in a cell viability assay.

IC50 (LXF-289 cell line): 17.7 nM
IC50 (KU812 cell line): 120 nM
IC50 (A253 cell line): 88.2 nM
Structure (SMILES): CC[C@@H]1C(=O)N(C)c2cnc(Nc3ccc(C(=O)NC4CCN(C)CC4)cc3OC)nc2N1C1CCCC1 [BI-2536]
IC50 (BC1 cell line): 226 nM

IC50 (SK-N-FI): 4940 nM
IC50 (CAL-62): 3550 nM
IC50 (SK-MEL-2): 809 nM
IC50 (HT55): 1650 nM
IC50 (SK-LU-1): > 10000 nM
IC50 (HEL): 806 nM
IC50 (MPP-89): 7600 nM
IC50 (GI-1): 2310 nM
IC50 (EW-18): 833 nM
IC50 (CaR-1): 2860 nM
IC50 (NCI-H520): > 10000 nM
IC50 (UACC-893): > 10000 nM
IC50 (IST-SL1): 2170 nM
IC50 (P30-OHK): 836 nM
IC50 (ATN-1): 740 nM
IC50 (8505C): 1020 nM
IC50 (LCLC-97TM1): 2150 nM
IC50 (IA-LM): 1690 nM
IC50 (MOLT-13): 739 nM
IC50 (HSC-2): 2130 nM
IC50 (MN-60): 1030 nM
IC50 (HTC-C3): 2270 nM
IC50 5637: 2320 nM
IC50 (SBC-1): 794 nM
IC50 (BB49-HNC): > 10000 nM
IC50 (RS4-11): 832 nM
IC50 (LU-139): 823 nM
IC50 (JVM-3): 1850 nM
IC50 (OVCAR-8): 1540 nM
IC50 (H-EMC-SS): > 10000 nM
IC50 (A673): 2260 nM
IC50 (NY): > 10000 nM
IC50 (TE-8): 2160 nM
IC50 (NCI-H1693): > 10000 nM
IC50 (NCI-H292): 2870 nM
IC50 (CAL-39): 2240 nM
IC50 (NCI-H1666): 2280 nM
IC50 (DMS-273): 2150 nM
IC50 (A3-KAW): 401 nM
IC50 (SW948): 2180 nM
IC50 (C8166): 2210 nM
IC50 (JAR): 2320 nM
IC50 (HN): 1890 nM
IC50 (GCT): 2180 nM
IC50 (OS-RC-2): 1870 nM
IC50 (VMRC-RCZ): > 10000 nM
IC50 (SK-N-AS): 988 nM
IC50 (MDA-MB-453): 2240 nM
IC50 (OE33): 4880 nM
IC50 (SNU-449): 2890 nM
IC50 (DSH1): 2160 nM
IC50 (ES7): 1550 nM
IC50 (PSN1): 2290 nM
IC50 (LCLC-103H cell line): 2900 nM
IC50 (YAPC): > 10000 nM
IC50 (TE-6): 4940 nM
IC50 (COR-L88): 1560 nM
IC50 (SW780): 4860 nM
IC50 (TE-1): 791 nM
IC50 (OCUB-M): 3550 nM
IC50 (HCC1569): 4880 nM
IC50 (COLO-824): 7730 nM
IC50 (CAL-51): 2170 nM
IC50 (Huh-7): 2310 nM
IC50 (8305C): 2870 nM
IC50 (NCI-H23): 1550 nM
IC50 (D-566MG): 839 nM
IC50 (SNU1): 1020 nM
IC50 (OC-314): 2230 nM
IC50 (COLO-320-HSR): 1880 nM
IC50 (NOMO-1): 2190 nM
IC50 (KARPAS-45): 174 nM
Structure (SMILES): O=C(CCCCCCC(=O)Nc1ccccc1)NO [VORINOSTAT]

IC50 (NCI-H446): > 2000 nM
IC50 (NCI-H1581): 1390 nM
IC50 (DMS-114): > 2000 nM
IC50 (K5): 421 nM
IC50 (CHP-212): > 2000 nM
IC50 (MHH-NB-11): > 2000 nM
IC50 (D-392MG): > 2000 nM
IC50 (EM-2): 168 nM
IC50 (AGS): 1110 nM
IC50 (A-427): 1100 nM
IC50 (ES7): 1110 nM
IC50 (L-363): > 2000 nM
IC50 (D-566MG): 1410 nM
IC50 (A2780): 1010 nM
IC50 (MEG-01): 424 nM
IC50 (LB1047-RCC): > 2000 nM
Structure (SMILES): CNC(=O)c1ccccc1Sc1ccc2c(/C=C/c3ccccn3)n[nH]c2c1 [AXITINIB]

IC50 (IGR-1): 1050 nM
IC50 (786-0): 322 nM
IC50 (NCI-H810): 426 nM
Structure (SMILES): NC(=O)[C@@H](CCC(F)(F)F)N(Cc1ccc(-c2ncon2)cc1F)S(=O)(=O)c1ccc(Cl)cc1

Reference: ChEMBL document CHEMBL1201861, “Genomics of Drug Sensitity in Cancer screening data, Wellcome Trust Sanger Institute”
